Experiments:
[1] = cited from earlier work
[2] = Solubility of 3,3'-diindolylmethane as a function of concentration of various cyclodextrins; type: physicochemical; details: solutions of α-, β- and γ-cyclodextrin, figure 2
Excerpt: Solubility of 3,3'-diindolylmethane was investigated as a function of concentration of various cyclodextrins. The following were used in the experiments: • α-cyclodextrin (αCD); • β-cyclodextrin (βCD); • γ-cyclodextrin (γCD).

[3] = Concentration of 3,3'-diindolylmethane in the blood plasma of patients; type: in vivo; details: DIM dosage 100 mg
Excerpt: (§1) In clinical studies, effectiveness of a water-soluble complex based on cyclodextrins and crystalline 3,3'-diindolylmethane in equal doses was compared. […]

[4] = Clinical comparison of effectiveness of water-soluble complexes and crystalline DIM in equal doses; type: in vivo; details: all studied groups of patients
Excerpt: as §1

In the case of `c1ccc2c(Cc3c[nH]c4ccccc34)c[nH]c2c1` [DIM crystalline, 3,3'-diindolylmethane], the “Solubility of 3,3'-diindolylmethane in DMSO” value [1] is listed as 18-20%, the “maximum solubility of 3,3'-diindolylmethane” value [2] is listed as “maximum solubility of 3,3'-diindolylmethane is achieved in combination with β-cyclodextrin (βCD)” and the “The concentration of DIM in plasma” value [3] is listed as “less than 30 ng / ml”. For the same compound, the “effectiveness (dynamics in patients)” value [4] was “absence of such”.
